In patent publication US20110059953A1, “COMPOUNDS FOR USE IN STABILIZING P53 MUTANTS” (priority 2008, published 2011):

Target: T1, T-p53C-Y220C (Homo sapiens, UniProt P04637, M133L/N239Y/N268D/V203A/Y220C)
T1 construct: For all other experiments, the DNA coding for residues 94-312 of T-p53C was inserted into a modified pET24a(+) vector; 6xHis tag + B. stearothermophilus dihydrolipoyl acetyltransferase lipoyl domain (aa 1-85) + TEV site (N, cleaved yes); made in house; host or cells: Escherichia coli BL21 (DE3) or C41 (DE3)
Experiment: Thermal denaturation using fluorescence (Sypro Orange)
Assay type: binding
Settings: 10 μM protein
Experimental: This was by an adaption of the classical procedure (e.g. ref A6). Thermal unfolding was monitored by the binding of the dye Sypro Orange (5×) using a Rotor-gene 6000 (Corbett Life Science) at 270 K/h in 25 mM NaPi, 150 mM NaCl and 5 mM DTT, pH 7.2 with a protein concentration of 10 μM.
(§1) Where listed, S.E. is the calculated standard error.
as §1

Structure (SMILES) | ΔTm (° C.) (further compounds) [°C] | ΔTm (° C.) (further studies on compounds described above) [°C]
CCn1c2ccccc2c2cc(NC(=O)COc3ccc(S(=O)(=O)N4CCOCC4)cc3)ccc21 [PK094] | 0.195 | 
CCn1c2ccccc2c2cc(NC(=O)COC(=O)CNC(=O)c3ccc([N+](=O)[O-])cc3)ccc21 [PK108] | 0.335 | 
CCOC(=O)/C=C/C(=O)OCC(=O)Nc1ccc2c(c1)c1ccccc1n2CC [PK113] | 0.36 | 
CCn1c2ccccc2c2cc(NC(=O)CN3C(=O)NC4(CCCC4)C3=O)ccc21 [PK116] | 0.365 | 
CCn1c2ccccc2c2cc(NC(=O)COC(=O)Cn3nc(C)c([N+](=O)[O-])c3C)ccc21 [PK118] | 0.28 | 
CCn1c2ccccc2c2cc(NC(=O)CN(C)CC(=O)Nc3ccc(N4CCOCC4)cc3)ccc21 [PK122] | 0.28 | 
CCCN1CCN(CC(=O)Nc2ccc3c(c2)c2ccccc2n3CC)CC1 [PK126] | 0.23 | 
CCn1c2ccccc2c2cc(NC(=O)CN3CCOCC3)ccc21 [PK128] | 0.24 | 
CCn1c2ccccc2c2cc(NC(=O)CO)ccc21 [PK132] | 0.2 | 
CCn1c2ccccc2c2cc(NC(=O)C(C)OC(=O)c3n[nH]c(=O)c4ccccc34)ccc21 (stereo not drawn) [PK133] | 0.145 | 
CCn1c2ccccc2c2cc(NC(=O)CCCC(=O)O)ccc21 [PK135] | 0.083 | 
CCn1c2ccccc2c2cc(NC(=O)CN3CCC(C(N)=O)CC3)ccc21 [PK151] | 0.14 | 
CCn1c2ccccc2c2cc(NC(=O)C3=COCCO3)ccc21 [PK153] | 0.16 | 
CCn1c2ccccc2c2cc(CN(C)c3ccc4nnnn4n3)ccc21 [PK157] | 0.12 | 
CCn1c2ccccc2c2cc(NC(=O)COc3ccc([N+](=O)[O-])nc3)ccc21 [PK163] | 0.27 | 0.24
CCn1c2ccccc2c2cc(NC(=O)CN3C(=O)NC4(CCCCC4)C3=O)ccc21 [PK165] | 0.24 | 
CCn1c2ccccc2c2cc(CN3CCCN(C)CC3)ccc21 [PK175] | 0.395 | 
CCn1c2ccccc2c2cc(CN3CCc4ccccc4C3)ccc21 [PK176] | 0.455 | 
CCn1c2ccccc2c2cc(CN3CCN(C)CC3)ccc21 [PK177] | 0.2 | 
CCn1c2ccccc2c2cc(CN(C)CC(O)c3ccccc3)ccc21 (stereo not drawn) [PK186] | 0.18 | 
CCn1c2ccccc2c2cc(CN3CCOCC3)ccc21 [PK190] | 0.15 | 
CCn1c2ccccc2c2cc(CN3CCN(Cc4ccccc4C(F)(F)F)CC3)ccc21 [PK197] | 0.08 | 
CCn1c2ccccc2c2cc(CN3CCN(Cc4cc(OC)ccc4O)CC3)ccc21 [PK202] | 0.17 | 
CCn1c2ccccc2c2cc(CNCCN3CCOCC3)ccc21 [PK208] | 0.35 | 

Structure (SMILES) | ΔTm (° C.) (further compounds) [°C] | ΔTm (° C.) (further studies on compounds described above) [°C]
CCn1cc(C(=O)CN2CCc3ccccc3C2)c2ccccc21 [PK212] | 0.387 | 
CCn1c2ccccc2c2cc(CN3CCN(S(=O)(=O)c4ccccc4)CC3)ccc21 [PK215] | 0.17 | 
CCn1c2ccccc2c2cc(CN3CCCC(C4NC(=O)NC4C)C3)ccc21 (stereo not drawn) [PK218] | 0.31 | 
CCn1cc(C2CC3CN(C)C(=O)C34CCCN24)c2ccccc21 (stereo not drawn) [PK222] | 0.14 | 
CNCc1ccc2c(c1)c1ccccc1n2CCCl [PK229] | 0.7 | 
CCn1c2ccccc2c2cc(CNCC(F)(F)F)ccc21 [PK230] | 0.4 | 
CNCc1ccc2c(c1)c1ccccc1n2CCBr [PK232] | 0.39 | 
CNCc1ccc2c(c1)c1ccccc1n2CCS [PK234] | 0.28 | 
CCn1c(-c2cn(CC)c3ccccc23)n[nH]c1=S [PK236] | 0.3 | 
CCn1cc(C(=O)Nc2ccc(OC)cc2)c2ccccc21 [PK237] | 0.2 | 
CCn1cc(C=C(C#N)C#N)c2ccccc21 [PK238] | 0.2 | 
CCn1cc(C=C(C#N)C(N)=O)c2ccccc21 [PK240] | 0.2 | 
CCOC(=O)c1c(C)n(C)c2ccc(O)cc12 [PK241] | 0.2 | 
CCn1cc(C(=O)O)c2ccccc21 [PK242] | 0.16 | 
Cc1c(C=O)c2ccccc2n1C [PK243] | 0.2 | 
CCOC(=O)c1c(C)n(CC)c2ccc(OC(=O)Nc3ccc(Cl)cc3)cc12 [PK246] | 0.31 | 
CCOC(=O)c1c(C)n(CC)c2cc(Br)c(OC)cc12 [PK248] | 0.21 | 
CCOC(=O)c1c(C)n(C)c2ccc(OCCN(C)C)cc12 [PK250] | 0.14 | 
Cn1cc(NN)c2ccccc21 [PK253] | 0.093 | 
[2H]NNS(=O)(=O)c1ccc(OC(F)(F)F)cc1 [PK254] | 0.43 | 
[2H]NNS(=O)(=O)c1cccc(C(F)(F)F)c1 [PK255] | 0.26 | 
[2H]C(=O)OCC(=O)NC(=O)NCC=C [PK256] | 0.1 | 
[2H]C(=O)OCC(=O)NCC(F)(F)F [PK258] | 0.1 | 
[2H]C(=O)OC(C)C(=O)NC(N)=O (stereo not drawn) [PK263] | 0.06 | 

Structure (SMILES) | ΔTm (° C.) (further compounds) [°C] | ΔTm (° C.) (further studies on compounds described above) [°C]
[2H]C(=O)OCC(=O)Nc1cc(C)on1 [PK264] | 0.19 | 
[2H]C(=O)OCC(=O)NC(=O)NCC [PK266] | 0.18 | 
[2H]C(=O)OCC(=O)NC(=O)NC [PK268] | 0.31 | 
[2H]C(=O)OCC(=O)NC(=O)NC1CCCC1 [PK269] | 0.15 | 
CCn1cc(C(=O)OC(C)C(=O)Nc2cc(C)on2)c2ccccc21 (stereo not drawn) [PK270] | 0.11 | 
CCn1cc(C(=O)Nc2cccc(S(=O)(=O)N(C)C)c2)c2ccccc21 [PK272] | 0.44 | 
CCn1cc(C(=O)OCC(=O)NC(=O)NCc2ccco2)c2ccccc21 [PK273] | 0.28 | 
COc1ccc2c(c1)c(C(=O)NCCc1ccccn1)c(C)n2C1CC1 [PK276] | 0.29 | 
COc1ccc2c(c1)c(C(=O)NC(C)C(C)C)c(C)n2C1CC1 (stereo not drawn) [PK277] | 0.34 | 
CCn1cc(C(=O)OCC(=O)c2ccc[nH]2)c2ccccc21 [PK279] | 0.24 | 
[2H]C(=O)Nc1cc(S(=O)(=O)N2CCN(C)CC2)ccc1OC [PK280] | 0.42 | 
[2H]NNS(=O)(=O)c1ccc(C(=O)OC)cc1 [PK281] | 0.43 | 
[2H]C(=O)N1CCN(c2ncccn2)CC1 [PK283] | 0.19 | 
[2H]C(=O)OC(CC)C(=O)Nc1cc(C)on1 (stereo not drawn) [PK284] | 0.23 | 
[2H]C(=O)N1CCN(Cc2ccccc2)CC1 [PK285] | 0.2 | 
[2H]C(=O)OC(C)c1nc(N)nc(N(C)C)n1 (stereo not drawn) [PK286] | 0.24 | 
[2H]C(=O)Nc1ccc(OC)c(S(N)(=O)=O)c1 [PK292] | 0.154 | 
[2H]C(=O)N1CCc2[nH]c3ccccc3c2C1 [PK293] | 0.3741 | 
COc1ccc2c(c1)c(C(=O)OC(C(N)=O)c1ccccc1)c(C)n2C1CC1 (stereo not drawn) [PK294] | 0.064 | 
[2H]C(=O)Nc1ccc(N2CCN(C)CC2)cc1C [PK295] | 0.244 | 
CCn1cc(C(=O)OCc2nc(N)nc(Nc3ccccc3)n2)c2ccccc21 [PK301] | 0.3 | 
CCOC(=O)c1c(C)n(C2CC2)c2ccc(OC(=O)C3COc4ccccc4O3)cc12 (stereo not drawn) [PK305] | 0.26 | 
CCn1cc(C(=O)NCc2cccc(S(=O)(=O)N3CCOCC3)c2)c2ccccc21 [PK306] | 0.26 | 
